PubChem BioAssay (NCI)
Several values for one entry are separate records, joined by “and”; a condition that tells them apart may be missing. Equal entries are not always repeated.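 Compound exposure: 48 hours, 5 concentrations, 96-well plates. At the GI50, growth is halved. TGI marks complete inhibition of growth.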

Columns and labels:
Assay in all cases: NCI tumour cell line growth inhibition, 48 h
P388 leukemia = tested on: P388 leukemia
P388/ADR leukemia = tested on: P388/ADR leukemia
RXF-631 renal = tested on: RXF-631 renal
BT-549 breast = tested on: BT-549 breast
HS 578T breast = tested on: HS 578T breast
DU-145 prostate = tested on: DU-145 prostate
MDA-MB-435 = tested on: MDA-MB-435
MDA-N = tested on: MDA-N

SMILES	TGI (P388 leukemia)	TGI (P388/ADR leukemia)	GI50 (BT-549 breast) [nM]	TGI (BT-549 breast) [nM]	TGI (HS 578T breast) [nM]	TGI (DU-145 prostate) [nM]	TGI (MDA-MB-435) [nM]	also measured
Cc1c2cc[nH]c(C(F)(F)F)c2cc2c1nc1ccccc12	> 125000 nM	> 70300 nM	–	–	–	–	–	–
O=C(Nc1cccc2ccccc12)Oc1ccccc1C1CCCCC1	–	–	–	–	–	–	–	TGI (RXF-631 renal): 36700 nM
FC(F)(F)c1ccc(-c2nc(-c3nc4cc(Cl)c(Cl)cc4[nH]3)c3ccccn23)cc1	–	–	8690	> 100000	> 100000	–	–	GI50 (HS 578T breast): 3990 nM
COc1cc2c(cc1OCCCN1CCN(CCCOc3cc4c(cc3OC)C(=O)N3CCC[C@H]3C=N4)CC1)C=CC(C)(C)O2	–	–	941	2470	–	2100	2550	GI50 (DU-145 prostate): 889 nM; GI50 (MDA-MB-435): 1240 nM
CCC1(O)CC(OC2CC(N(C)C)C(OC3CC4OC5CC(=O)C(C)OC5OC4C(C)O3)C(C)O2)c2c(cc3c(c2O)C(=O)c2c(O)ccc(O)c2C3=O)C1C(=O)OC (stereo unspecified)	4.22 nM and 8.17 nM	8 nM and < 45.1 nM	–	–	–	–	–	GI50 (P388 leukemia): 7.5 nM; GI50 (P388/ADR leukemia): 7.5 nM
O=c1cnn(C/C=C\CO)c(=O)[nH]1	–	–	–	–	> 100000	> 100000	> 100000	TGI (MDA-N): > 100000 nM
